Source: patent publication US8440652B2, “MST1 kinase inhibitors and methods of their use” (Lexicon Pharmaceuticals, Inc., priority 2011, dated 2013)
Read-outs that look alike come from different tables or passages of the source.

Target: T1, MST1 (Homo sapiens, UniProt Q13043)
T1 sequence (Q13043 1-487): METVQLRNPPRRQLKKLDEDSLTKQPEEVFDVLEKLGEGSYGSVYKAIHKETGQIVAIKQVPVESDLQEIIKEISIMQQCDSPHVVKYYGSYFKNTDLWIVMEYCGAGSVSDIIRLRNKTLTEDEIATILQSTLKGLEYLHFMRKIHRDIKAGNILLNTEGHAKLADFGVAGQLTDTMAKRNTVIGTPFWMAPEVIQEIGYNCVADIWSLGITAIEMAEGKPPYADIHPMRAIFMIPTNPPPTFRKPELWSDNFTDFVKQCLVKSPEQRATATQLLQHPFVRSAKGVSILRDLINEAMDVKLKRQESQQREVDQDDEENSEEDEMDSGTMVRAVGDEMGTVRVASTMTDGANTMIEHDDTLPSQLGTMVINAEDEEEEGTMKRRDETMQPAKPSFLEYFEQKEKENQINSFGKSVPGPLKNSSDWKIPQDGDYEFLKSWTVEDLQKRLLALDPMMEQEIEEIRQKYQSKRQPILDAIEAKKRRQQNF
Assay: In vitro measurement of MST1 inhibition (Z′-Lyte kinase assay)
Type: biochemical
Procedure: Assays were performed in low-volume 384-well black proxiplates (Perkin Elmer, PE-Blk-Proxi-6008269). Eight compounds were first diluted into LDV (Echo) plates using a Multiprobe, at a starting concentration of 1 mM compound in 100% DMSO. Using the ECHO, 75 nl compound was pinged into 384-well proxiplates. The starting concentration of compound in each assay plate is 7.5 uM, followed by 3-fold dilutions, to give quadruplicate ten-point concentration curves. A 3× solution of MST1 enzyme in kinase buffer (Invitrogen, PR4940C) was added to wells containing compound or DMSO controls, followed by a 10 minute preincubation step. Reactions were initiated by adding 5 μL of a mixture of ATP and Z′-Lyte S/T Pep 7 (Invitrogen, PV3180) and proceeded at RT for 1 hour. […] At the end of the kinase reaction, 10 ul of developing solution (Invitrogen, catalog #PR4876B; development buffer A diluted […] in development buffer B) was added to each well and incubated at RT for 1 hr. All wells were read on a Tecan at 400 nm excitation and 460 nm/530 nm emission. Plus and minus enzyme controls were used to calculate percent inhibition and IC50 curves were generated using Excel.

[1] = 50 μM ATP, read-out: IC50 (μM) 50 μM ATP
[2] = 1 μM ATP, read-out: IC50 (μM) 1 μM ATP

IC50 [1]	IC50 [2]	SMILES
< 0.01 µM	< 0.05 µM	N#CC1(c2ccc(-c3cnc(N)c(-c4ccc5c(c4)CCNC5=O)n3)cc2)CCOCC1 [4-(4-(5-amino-6-(1-oxo-1,2,3,4-tetrahydroisoquinolin-6-yl)pyrazin-2-yl)phenyl)tetrahydro-2H-pyran-4-carbonitrile]
< 0.01 µM	< 0.01 µM	CCN(C)S(=O)(=O)c1ccc(-c2cnc(N)c(-c3ccc4c(c3)CCNC4=O)n2)cc1Cl [4-(5-amino-6-(1-oxo-1,2,3,4-tetrahydroisoquinolin-6-yl)pyrazin-2-yl)-2-chloro-N-ethyl-N-methylbenzenesulfonamide]
< 0.01 µM	< 0.01 µM	CCCN(C)S(=O)(=O)c1ccc(-c2cnc(N)c(-c3ccc4c(c3)CCNC4=O)n2)cc1Cl [4-(5-amino-6-(1-oxo-1,2,3,4-tetrahydroisoquinolin-6-yl)pyrazin-2-yl)-2-chloro-N-methyl-N-propylbenzenesulfonamide]
< 0.01 µM	< 0.01 µM	[2H]C([2H])([2H])N(C([2H])([2H])[2H])S(=O)(=O)c1ccc(-c2cnc(N)c(-c3ccc4c(c3)CCNC4=O)n2)cc1 [4-(5-amino-6-(1-oxo-1,2,3,4-tetrahydroisoquinolin-6-yl)pyrazin-2-yl)-N,N-di(trideuteromethyl)benzenesulfonamide]
< 0.01 µM	< 0.05 µM	CN(CC(F)F)S(=O)(=O)c1ccc(-c2cnc(N)c(-c3ccc4c(c3)CCNC4=O)n2)cc1 [4-(5-amino-6-(1-oxo-1,2,3,4-tetrahydroisoquinolin-6-yl)pyrazin-2-yl)-N-(2,2-difluoroethyl)-N-methylbenzenesulfonamide]
< 0.01 µM	< 0.01 µM	CCN(CC1CC1)S(=O)(=O)c1ccc(-c2cnc(N)c(-c3ccc4c(c3)CCNC4=O)n2)cc1 [4-(5-amino-6-(1-oxo-1,2,3,4-tetrahydroisoquinolin-6-yl)pyrazin-2-yl)-N-(cyclopropylmethyl)-N-ethylbenzenesulfonamide]
< 0.01 µM	< 0.01 µM	CN(C1CCC1)S(=O)(=O)c1ccc(-c2cnc(N)c(-c3ccc4c(c3)CCNC4=O)n2)cc1 [4-(5-amino-6-(1-oxo-1,2,3,4-tetrahydroisoquinolin-6-yl)pyrazin-2-yl)-N-cyclobutyl-N-methylbenzenesulfonamide]
< 0.01 µM	< 0.01 µM	CN(C1CC1)S(=O)(=O)c1ccc(-c2cnc(N)c(-c3ccc4c(c3)CCNC4=O)n2)cc1F [4-(5-amino-6-(1-oxo-1,2,3,4-tetrahydroisoquinolin-6-yl)pyrazin-2-yl)-N-cyclopropyl-2-fluoro-N-methylbenzenesulfonamide]
< 0.01 µM	< 0.05 µM	CCN(C1CC1)S(=O)(=O)c1ccc(-c2cnc(N)c(-c3ccc4c(c3)CCNC4=O)n2)cc1 [4-(5-amino-6-(1-oxo-1,2,3,4-tetrahydroisoquinolin-6-yl)pyrazin-2-yl)-N-cyclopropyl-N-ethylbenzenesulfonamide]
< 0.01 µM	< 0.01 µM	[2H]C([2H])([2H])N(C1CC1)S(=O)(=O)c1ccc(-c2cnc(N)c(-c3ccc4c(c3)CCNC4=O)n2)cc1 [4-(5-amino-6-(1-oxo-1,2,3,4-tetrahydroisoquinolin-6-yl)pyrazin-2-yl)-N-cyclopropyl-N-trideuteromethylbenzenesulfonamide]

Continued, molecule first:

SMILES	IC50 [1]	IC50 [2]
CN(C)C(=O)COc1ccc(-c2cnc(N)c(-c3ccc(C(N)=O)cc3)c2)cc1 [4-(2-amino-5-(4-(2-(dimethylamino)-2-oxoethoxy)phenyl)pyridin-3-yl)benzamide]	< 0.15 µM	–
NC(=O)c1ccc(-c2cc(-c3ccc(CC(=O)N4CCCC4)cc3)cnc2N)cc1 [4-(2-amino-5-(4-(2-oxo-2-(pyrrolidin-1-yl)ethyl)phenyl)pyridin-3-yl)benzamide]	< 0.15 µM	–
CCN(CC)S(=O)(=O)c1ccc(-c2cnc(N)c(-c3ccc(C(N)=O)c(F)c3)c2)cc1 [4-(2-amino-5-(4-(N,N-diethylsulfamoyl)phenyl)pyridin-3-yl)-2-fluorobenzamide]	< 0.05 µM	–
NC(=O)c1ccc(-c2cc(-c3ccc(S(=O)(=O)NC4CC4)cc3)cnc2N)cc1 [4-(2-amino-5-(4-(N-cyclopropylsulfamoyl)phenyl)pyridin-3-yl)benzamide]	< 0.05 µM	< 0.05 µM
CNS(=O)(=O)c1ccc(-c2cnc(N)c(-c3ccc(C(N)=O)cc3)c2)cc1 [4-(2-amino-5-(4-(N-methylsulfamoyl)phenyl)pyridin-3-yl)benzamide]	< 0.15 µM	–
Nc1ncc(-c2ccc(C(=O)NCc3ccccc3)cc2)cc1-c1ccc(C(=O)NO)cc1 [4-(2-amino-5-(4-(benzylcarbamoyl)phenyl)pyridin-3-yl)-N-hydroxybenzamide]	< 0.15 µM	–
NC(=O)c1ccc(-c2cc(-c3ccc(C(=O)c4ccccc4)cc3)cnc2N)cc1 [4-(2-amino-5-(4-benzoylphenyl)pyridin-3-yl)benzamide]	< 0.15 µM	–
CCOc1cc(-c2cc(-c3ccc(F)cc3)cnc2N)ccc1C(N)=O [4-(2-amino-5-(4-fluorophenyl)pyridin-3-yl)-2-ethoxybenzamide]	< 0.15 µM	–
CCCOc1ccc(-c2cnc(N)c(-c3ccc(C(N)=O)cc3)c2)cc1 [4-(2-amino-5-(4-propoxyphenyl)pyridin-3-yl)benzamide]	< 0.15 µM	–
NC(=O)c1ccc(-c2cc(-c3ccc(S(N)(=O)=O)cc3)cnc2N)cc1 [4-(2-amino-5-(4-sulfamoylphenyl)pyridin-3-yl)benzamide]	< 0.15 µM	–
CC(C)Oc1cc(-c2nc(-c3ccc(S(=O)(=O)N(C)C4CC4)cc3)cnc2N)ccc1C(N)=O [4-(3-amino-6-(4-(N-cyclopropyl-N-methylsulfamoyl)phenyl)pyrazin-2-yl)-2-isopropoxybenzamide]	< 0.01 µM	< 0.05 µM
N#CC1(c2ccc(-c3cnc(N)c(-c4ccc5c(c4)CCCNC5=O)n3)cc2)CCOCC1 [4-(4-(5-amino-6-(1-oxo-2,3,4,5-tetrahydro-1H-benzo[c]azepin-7-yl)pyrazin-2-yl)phenyl)tetrahydro-2H-pyran-4-carbonitrile]	< 0.01 µM	< 0.05 µM
N#CC1(c2ccc(-c3cnc(N)c(-c4ccc5c(c4)C4(CC4)NC5=O)n3)cc2)CCOCC1 [4-(4-(5-amino-6-(3′-oxospiro[cyclopropane-1,1′-isoindolin]-6′-yl)pyrazin-2-yl)phenyl)tetrahydro-2H-pyran-4-carbonitrile]	< 0.01 µM	< 0.05 µM
CC1(C)CNC(=O)c2ccc(-c3nc(-c4ccc(C5(C#N)CCOCC5)cc4)cnc3N)cc21 [4-(4-(5-amino-6-(4,4-dimethyl-1-oxo-1,2,3,4-tetrahydroisoquinolin-6-yl)pyrazin-2-yl)phenyl)tetrahydro-2H-pyran-4-carbonitrile]	< 0.01 µM	< 0.01 µM
N#CC1(c2ccc(-c3cnc(N)c(-c4ccc5c(c4)NCCNC5=O)n3)cc2)CCOCC1 [4-(4-(5-amino-6-(5-oxo-2,3,4,5-tetrahydro-1H-benzo[e][1,4]diazepin-8-yl)pyrazin-2-yl)phenyl)tetrahydro-2H-pyran-4-carbonitrile]	< 0.01 µM	< 0.05 µM
N#CC1(c2ccc(-c3cnc(N)c(-c4ccc5c(c4)C4(CC4)CNC5=O)c3)cc2)CCOCC1 [4-(4-(6-amino-5-(1′-oxo-2′,3′-dihydro-1′H-spiro[cyclopropane-1,4′-isoquinolin]-6′-yl)pyridin-3-yl)phenyl)tetrahydro-2H-pyran-4-carbonitrile]	< 0.01 µM	< 0.01 µM
N#CC1(c2ccc(-c3cnc(N)c(-c4ccc5c(c4)C4(CC4)NC5=O)c3)cc2)CCOCC1 [4-(4-(6-amino-5-(3′-oxospiro[cyclopropane-1,1′-isoindolin]-6′-yl)pyridin-3-yl)phenyl)tetrahydro-2H-pyran-4-carbonitrile]	< 0.01 µM	< 0.05 µM
CC1(C)CNC(=O)c2ccc(-c3cc(-c4ccc(C5(C#N)CCOCC5)cc4)cnc3N)cc21 [4-(4-(6-amino-5-(4,4-dimethyl-1-oxo-1,2,3,4-tetrahydroisoquinolin-6-yl)pyridin-3-yl)phenyl)tetrahydro-2H-pyran-4-carbonitrile]	< 0.01 µM	< 0.01 µM
NC(=O)c1ccc(-c2cc(-c3ccc(-n4ccnc4)cc3)cnc2N)cc1 [4-(5-(4-(1H-imidazol-1-yl)phenyl)-2-aminopyridin-3-yl)benzamide]	< 0.15 µM	–
CC(=O)NS(=O)(=O)c1ccc(-c2cnc(N)c(-c3ccc(C(N)=O)cc3)c2)cc1 [4-(5-(4-(N-acetylsulfamoyl)phenyl)-2-aminopyridin-3-yl)benzamide]	< 0.15 µM	–
CCN(C)S(=O)(=O)c1ccc(-c2cnc(N)c(-c3ccc4c(O)nccc4c3)n2)cc1 [4-(5-amino-6-(1-hydroxyisoquinolin-6-yl)pyrazin-2-yl)-N-ethyl-N-methylbenzenesulfonamide]	< 0.01 µM	< 0.01 µM
